{
  "source": "patent US4029778A",
  "about": "(priority 1969, dated 1977)",
  "key": {"Ehrlich ascites tumor [1]": {"tested_on": "Ehrlich ascites tumor", "conditions": "in vivo, ip; for Lethality: 1000 mg/kg"}, "Hepatoma 130 tumor [2]": {"tested_on": "Hepatoma 130 tumor", "conditions": "in vivo, ip"}, "[3]": {"tested_on": "Harding-Passey Melanoma tumor"}, "Walker 256 tumor [4]": {"tested_on": "Walker 256 tumor", "conditions": "in vivo"}, "Ehrlich ascites tumor [5]": {"tested_on": "Ehrlich ascites tumor", "test": "animal or person", "conditions": "ip, read-out: ED50 (Effect)"}, "Hepatoma 130 tumor [6]": {"tested_on": "Hepatoma 130 tumor", "test": "animal or person", "conditions": "ip, read-out: ED50 (Effect)"}, "Walker 256 tumor [7]": {"tested_on": "Walker 256 tumor", "test": "animal or person", "conditions": "Walker 256, ip, read-out: ED50 (Effect)"}, "in vivo [8]": {"test": "in vivo", "conditions": "ip"}, "tumors": {"tested_on": "tumors", "test": "antitumor activity (statement in words)", "type": "in vivo", "protocol": "(§1) The esters of the invention have shown effect in inhibiting the growth of several tumors, e.g., Ehrlich ascites, Hepatoma AH 130, lymphocytic leukemia (L1210), Walker 256 and Harding-Passey Melanoma according to the procedure of Cancer Chemotherapy National Service Center (Ref.: Cancer Chemotherapy Reports, December 1962).\nThe esters of this invention were tested for effectiveness in inhibiting the growth of Ehrlich ascites, Hepatoma 130, lymphocytic leukemia (L 1210), and Harding-Passey Melanoma, and Walker 256 tumors. The administration was by the intraperitoneal route in each case."}, "in vivo [9]": {"test": "in vivo", "conditions": "ip", "remark": "listed apart in the source"}, "[10]": {"test": "Hepatoma 130 tumor growth inhibition and lethality, oral (Table 5)", "type": "in vivo", "conditions": "in vivo, 1 × dose", "excerpt": "as §1"}, "Hepatoma 130": {"tested_on": "Hepatoma 130", "test": "Hepatoma 130 tumor growth inhibition and lethality, oral (Table 5)", "type": "in vivo", "conditions": "1 × dose", "excerpt": "as §1"}, "[11]": {"test": "Harding-Passey Melanoma growth inhibition and lethality, oral (Table 5)", "type": "in vivo", "conditions": "in vivo, 11 × dose", "excerpt": "as §1"}, "Harding-Passey Melanoma": {"tested_on": "Harding-Passey Melanoma", "test": "Harding-Passey Melanoma growth inhibition and lethality, oral (Table 5)", "type": "in vivo", "conditions": "11 × dose", "excerpt": "as §1"}, "[12]": {"test": "Walker 256 tumor growth inhibition and lethality, oral (Table 5)", "type": "in vivo", "conditions": "in vivo", "excerpt": "as §1"}, "Walker 256": {"tested_on": "Walker 256", "test": "Walker 256 tumor growth inhibition and lethality, oral (Table 5)", "type": "in vivo", "excerpt": "as §1"}, "[13]": {"tested_on": "Harding-Passey Melanoma tumor", "test": "animal or person", "conditions": "ip, read-out: ED50 (Effect)"}},
  "note": "Where two headings read alike, the source gives them in different places.",
  "data": [
    {"molecule": "C[C@]12CCC(=O)C=C1CC[C@@H]1[C@@H]2[C@@H](O)C[C@@]2(C)[C@H]1CC[C@]2(O)C(=O)COC(=O)c1ccc(N(CCCl)CCCl)cc1", "note": "[hydrocortisone-21-p-/N-bis(β -chloroethyl)-amino/-benzoate]", "values": [
      {"measurement": "ED50 (Effect)", "setting": "Ehrlich ascites tumor [1]", "result": 15, "unit": "mg/kg"},
      {"measurement": "ED50 (Effect)", "setting": "Hepatoma 130 tumor [2]", "result": 28, "unit": "mg/kg"},
      {"measurement": "ED50 (Effect)", "setting": "[3]; intraperitoneal, 11 × dose", "result": 19, "unit": "mg/kg"}
    ]},
    {"molecule": "C[C@]12C=CC(=O)C=C1CC[C@@H]1[C@@H]2[C@@H](O)C[C@@]2(C)[C@H]1CC[C@]2(O)C(=O)CO", "note": "[Prednisolone, pregna-1,4-dien-11β,17α ,21-triol-3,20-dion, reference compound]", "values": [
      {"measurement": "T.I.", "setting": "Ehrlich ascites tumor [1]", "result": "> 8.3"},
      {"measurement": "Lethality", "setting": "Ehrlich ascites tumor [1]", "result": "no toxicity"},
      {"measurement": "T.I.", "setting": "Hepatoma 130 tumor [2]", "result": 6.6},
      {"measurement": "T.I.", "setting": "[3]; in vivo, ip", "result": "< 2.5"},
      {"measurement": "Effect", "setting": "[3]; in vivo, ip, 243 mg/kg", "result": "no effect"},
      {"measurement": "T.I.", "setting": "Walker 256 tumor [4]; ip", "result": 3.0},
      {"measurement": "ED50", "setting": "Ehrlich ascites tumor [5]", "result": 120, "unit": "mg/kg"},
      {"measurement": "ED50", "setting": "Hepatoma 130 tumor [6]", "result": 118, "unit": "mg/kg"},
      {"measurement": "ED50", "setting": "Walker 256 tumor [7]", "result": 214, "unit": "mg/kg"}
    ]},
    {"molecule": "C[C@]12C=CC(=O)C=C1CC[C@@H]1[C@@H]2[C@@H](O)C[C@@]2(C)[C@H]1CC[C@]2(O)C(=O)COC(=O)Cc1ccc(N(CCCl)CCCl)cc1", "note": "[prednisolone-21-p-/N-bis(β-chloroethyl)-amino/-phenylacetate]", "values": [
      {"measurement": "ED50 (Effect)", "setting": "Hepatoma 130 tumor [2]", "result": 27, "unit": "mg/kg"},
      {"measurement": "LD50", "setting": "in vivo [8]", "result": 560, "unit": "mg/kg"}
    ]},
    {"molecule": "C[C@]12C=CC(=O)C=C1CC[C@@H]1[C@@H]2[C@@H](O)C[C@@]2(C)[C@H]1CC[C@]2(O)C(=O)COC(=O)c1ccc(N(CCCl)CCCl)cc1", "note": "[prednisolone-21-p-/N-bis(β-chloroethyl)-amino/-benzoate]", "values": [
      {"measurement": "antitumor activity", "setting": "tumors", "result": "desired antitumor activity"},
      {"measurement": "ED50 (Effect)", "setting": "Ehrlich ascites tumor [1]", "result": 13, "unit": "mg/kg"},
      {"measurement": "Lethality", "setting": "Ehrlich ascites tumor [1]", "result": "no toxicity"},
      {"measurement": "ED50 (Effect)", "setting": "Hepatoma 130 tumor [2]", "result": 5.6, "unit": "mg/kg"},
      {"measurement": "ED50 (Effect)", "setting": "[3]; intraperitoneal, 11 × dose", "result": 3.4, "unit": "mg/kg"},
      {"measurement": "ED50 (Effect)", "setting": "Walker 256 tumor [4]; ip", "result": 9.6, "unit": "mg/kg"}
    ]},
    {"molecule": "C[C@]12C=CC(=O)C=C1CC[C@@H]1[C@@H]2C(=O)C[C@@]2(C)[C@H]1CC[C@]2(O)C(=O)COC(=O)c1ccc(N(CCCl)CCCl)cc1", "note": "[prednisone-21-p-/N-bis(β-chloroethyl)-amino/-benzoate]", "values": [
      {"measurement": "ED50 (Effect)", "setting": "Ehrlich ascites tumor [1]", "result": 12, "unit": "mg/kg"},
      {"measurement": "Lethality", "setting": "Ehrlich ascites tumor [1]", "result": "no toxicity"},
      {"measurement": "ED50 (Effect)", "setting": "Hepatoma 130 tumor [2]", "result": 58, "unit": "mg/kg"},
      {"measurement": "Lethality", "setting": "Hepatoma 130 tumor [2]; 1000 mg/kg", "result": "no toxicity"},
      {"measurement": "ED50 (Effect)", "setting": "[3]; intraperitoneal, 11 × dose", "result": 18, "unit": "mg/kg"},
      {"measurement": "LD50", "setting": "in vivo [9]", "result": 97, "unit": "mg/kg"}
    ]},
    {"molecule": "CC(=O)NC(Cc1ccc(N(CCCl)CCCl)cc1)C(=O)OCC(=O)[C@@]1(O)CC[C@H]2[C@@H]3CCC4=CC(=O)CC[C@]4(C)[C@H]3[C@@H](O)C[C@@]21C", "note": "(stereo partly drawn) [hydrocortisone-21-3'-{p-[N-bis-(β-chloroethyl)-amino]-phenyl}-2'-acetamido-propionate]", "values": [
      {"measurement": "antitumor activity against Walker 256 tumors", "setting": "Walker 256 tumor [4]", "result": "same activity"}
    ]},
    {"molecule": "CC(=O)NC(Cc1ccc(N(CCCl)CCCl)cc1)C(=O)OCC(=O)[C@@]1(O)CC[C@H]2[C@@H]3CCC4=CC(=O)C=C[C@]4(C)[C@H]3[C@@H](O)C[C@@]21C", "note": "(stereo partly drawn) [prednisolone-21-3'-{p-[N-bis-(β-chloroethyl)-amino]-phenyl}-2'-acetamido-propionate]", "values": [
      {"measurement": "antitumor activity against Walker 256 tumors", "setting": "Walker 256 tumor [4]", "result": "active antitumor agent"}
    ]},
    {"molecule": "C[C@]12CCC(=O)C=C1CC[C@@H]1[C@@H]2[C@@H](O)C[C@@]2(C)[C@H]1CC[C@]2(O)C(=O)COC(=O)C(N)Cc1ccc(N(CCCl)CCCl)cc1", "note": "(stereo partly drawn) [hydrocortisone-21-3'-{p-[N-bis-(β-chloroethyl)-amino]-phenyl}-2'-aminopropionate]", "values": [
      {"measurement": "antitumor activity", "setting": "tumors", "result": "desired antitumor activity"}
    ]},
    {"molecule": "Cc1ccc(C(=O)OCC(=O)[C@@]2(O)CC[C@H]3[C@@H]4CCC5=CC(=O)C=C[C@]5(C)[C@H]4[C@@H](O)C[C@@]32C)cc1N(CCCl)CCCl", "note": "[prednisolone-21-3'-[N-bis-(β-chloroethyl)-amino]-4'-methyl-benzoate]", "values": [
      {"measurement": "antitumor activity", "setting": "tumors", "result": "having the desired antitumor activity"}
    ]},
    {"molecule": "C[C@]12C=CC(=O)C=C1CC[C@@H]1[C@@H]2[C@@H](O)C[C@@]2(C)[C@H]1CC[C@]2(O)C(=O)COC(=O)C(N)Cc1ccc(N(CCCl)CCCl)cc1", "note": "(stereo partly drawn) [prednisolone-21-3'-{p-[N-bis-(β-chloroethyl)-amino]-phenyl}-2'-aminopropionate]", "values": [
      {"measurement": "antitumor activity", "setting": "tumors", "result": "desired antitumor activity"}
    ]},
    {"molecule": "C[C@]12C=CC(=O)C=C1CC[C@@H]1[C@@H]2[C@@H](O)C[C@@]2(C)[C@H]1CC[C@]2(O)C(=O)COC(=O)CCCc1ccc(N(CCCl)CCCl)cc1", "note": "[prednisolone-21-4'-[p-/N-bis(β-chloroethyl)-amino/-phenyl]-butyrate]", "values": [
      {"measurement": "LD50", "setting": "[10]", "result": 380, "unit": "mg/kg"},
      {"measurement": "T.I.", "setting": "Hepatoma 130", "result": 2.5},
      {"measurement": "ED50", "setting": "Hepatoma 130; read-out: ED50 (Effect)", "result": 155, "unit": "mg/kg"},
      {"measurement": "LD50", "setting": "[11]", "result": 40, "unit": "mg/kg"},
      {"measurement": "T.I.", "setting": "Harding-Passey Melanoma", "result": 6.7},
      {"measurement": "ED50", "setting": "Harding-Passey Melanoma; read-out: ED50 (Effect)", "result": 6, "unit": "mg/kg"},
      {"measurement": "LD50", "setting": "[12]", "result": 64, "unit": "mg/kg"},
      {"measurement": "T.I.", "setting": "Walker 256", "result": 64},
      {"measurement": "ED50", "setting": "Walker 256; Walker 256, read-out: ED50 (Effect)", "result": 1, "unit": "mg/kg"},
      {"measurement": "T.I.", "setting": "Hepatoma 130 tumor [2]", "result": 45},
      {"measurement": "T.I.", "setting": "[3]; intraperitoneal, 11 × dose", "result": 2.2},
      {"measurement": "T.I.", "setting": "Walker 256 tumor [4]; ip", "result": 29},
      {"measurement": "ED50", "setting": "Hepatoma 130 tumor [6]", "result": 5.8, "unit": "mg/kg"},
      {"measurement": "ED50", "setting": "[13]", "result": 3.1, "unit": "mg/kg"},
      {"measurement": "ED50", "setting": "Walker 256 tumor [7]", "result": 1.1, "unit": "mg/kg"}
    ]},
    {"molecule": "Cc1ccc(C(=O)OCC(=O)[C@@]2(O)CC[C@H]3[C@@H]4CCC5=CC(=O)CC[C@]5(C)[C@H]4[C@@H](O)C[C@@]32C)cc1N(CCCl)CCCl", "note": "[hydrocortisone-21-3'-[N-bis-(β-chloroethyl)-amino]-4'-methylbenzoate]", "values": [
      {"measurement": "antitumor activity", "setting": "tumors", "result": "desired antitumor activity"}
    ]},
    {"molecule": "O=C(O)CCCc1ccc(N(CCCl)CCCl)cc1", "note": "[Chlorambucil, reference compound]", "values": [
      {"measurement": "LD50", "setting": "[10]", "result": 55, "unit": "mg/kg"},
      {"measurement": "ED50 (Effect)", "setting": "Hepatoma 130", "result": "> 31", "unit": "mg/kg"},
      {"measurement": "LD50", "setting": "[11]", "result": 7, "unit": "mg/kg"},
      {"measurement": "ED50 (Effect)", "setting": "Harding-Passey Melanoma", "result": 2.3, "unit": "mg/kg"},
      {"measurement": "LD50", "setting": "[12]", "result": 13.5, "unit": "mg/kg"},
      {"measurement": "ED50 (Effect)", "setting": "Walker 256", "result": 0.42, "unit": "mg/kg"},
      {"measurement": "ED50 (Effect)", "setting": "Hepatoma 130 tumor [2]", "result": 4.3, "unit": "mg/kg"},
      {"measurement": "LD50", "setting": "in vivo [8]", "result": 30, "unit": "mg/kg"}
    ]},
    {"molecule": "C[C@]12CCC(=O)C=C1CC[C@@H]1[C@@H]2[C@@H](O)C[C@@]2(C)[C@H]1CC[C@]2(O)C(=O)COC(=O)CCCc1ccc(N(CCCl)CCCl)cc1", "note": "[hydrocortisone-21-4'-{p-[N-bis-(β-chloroethyl)-amino]-phenyl}-butyrate]", "values": [
      {"measurement": "antitumor activity", "setting": "tumors", "result": "desired antitumor activity"}
    ]}
  ]
}
